Read-outs that look alike come from different tables or passages of the source.
Assays:
[1] = test system: JAK1/TYK2 pSTAT5 (Tyr694/699) in THP-1 cell line; assay: IFNa-stimulated JAK1/TYK2 pSTAT5 (Tyr694/699) inhibition cellular assay, AlphaLISA; assay type: cell-based; settings: Homo sapiens, THP-1 cells, AlphaLISA (Assay B)
Method in brief: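 THP-1 cells (2e4/well in HBSS) were preincubated with compound (8 points, 6-fold steps from 10000 nM final) for 1 h at 37 °C, then stimulated with IFNa (added at 100 ng/mL) for 30 min. Lysate pSTAT5 was read by AlphaLISA at 615 nm. IC50 came from a 4-parameter fit with bottom 0 and Hill −1.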

TYK2 JH2 = target: T1, TYK2 JH2 (Homo sapiens, UniProt P29597); assay: TYK2 JH2 binding assay (KINOMEscan KdELECT competitive binding); settings: TYK2 JH2 domain
T1 construct: purchased DiscoverX (KINOMEscan KdELECT service); host or cells: E. coli BL21-derived (T7 phage display) or HEK-293
T1 sequence (P29597 589-875 limits assumed): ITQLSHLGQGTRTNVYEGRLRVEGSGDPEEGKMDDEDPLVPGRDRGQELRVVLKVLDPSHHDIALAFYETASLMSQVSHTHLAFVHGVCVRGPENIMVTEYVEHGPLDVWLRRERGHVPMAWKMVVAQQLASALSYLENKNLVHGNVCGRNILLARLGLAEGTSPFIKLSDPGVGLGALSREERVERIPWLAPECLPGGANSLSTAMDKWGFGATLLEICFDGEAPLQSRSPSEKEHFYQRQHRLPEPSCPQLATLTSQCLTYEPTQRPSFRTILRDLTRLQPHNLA
Method in brief: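 Kd values come from qPCR measurement of kinase retained on an immobilized-ligand resin after 1 h room-temperature competition with compound in an 11-point, 3-fold series.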

[2] = IFNa-stimulated, read-out: Cellular_THP1_IFNa-pSTATS_TYK2
[3] = KINOMEscan KdELECT (Assay A), read-out: Biochemical TYK2_DiscoverX_JH2_BND_Kd
[4] = DiscoverX KINOMEscan KdELECT (Assay A), read-out: Biochemical TYK2_DiscoverX_JH2_BND_Kd
[5] = IFNa-stimulated, read-out: Cellular THP1_IFNa-pSTATS_IC50
[6] = KINOMEscan KdELECT (Assay A), read-out: Biochemical TYK2_JH2_Kd
[7] = IFNa-stimulated pSTAT5 (Tyr694/699), read-out: Cellular_THP1_IFNa-pSTATS_TYK2

| IC50 [1, 2] [nM] | Kd (TYK2 JH2; [3]) [nM] | Compound | other results |
| --- | --- | --- | --- |
| ≤ 500 | ≤ 100 | CNc1ncc(C#Cc2ccc(N3CCO[C@@H](C)C3)cc2)c2cc(NC(=O)C3CC3)ncc12 [Example 709, (S)—N-(8-(methylamino)-5-((4-(2-methylmorpholino)phenyl)ethynyl)-2,7-naphthyridin-3-yl)cyclopropanecarboxamide] |  |
| ≤ 500 |  | CNc1ncc(-c2nc3cc(N4CCOCC(C)C4)ccc3o2)c2cc(NC(=O)C3CC3)ncc12 (stereo not drawn) [Example 335, N-(5-(5-(6-methyl-1,4-oxazepan-4-yl)benzo[d]oxazol-2-yl)-8-(methylamino)-2,7-naphthyridin-3-yl)cyclopropanecarboxamide] | Kd (TYK2 JH2; [4]): ≤ 100 nM |
|  |  | CNc1ncc(C2CCOCC2)c2cc(NC(=O)C3CC3)ncc12 [Example 68, N-(8-(methylamino)-5-(tetrahydro-2H-pyran-4-yl)-2,7-naphthyridin-3-yl)cyclopropanecarboxamide] | IC50 [1, 5]: > 500 nM; Kd (TYK2 JH2; [6]): ≤ 100 nM |
| ≤ 500 | ≤ 100 | CNc1ncc(C#Cc2cc3ccoc3cn2)c2cc(NC(=O)C3CC3)ncc12 [Example 667, N-(5-(furo[2,3-c]pyridin-5-ylethynyl)-8-(methylamino)-2,7-naphthyridin-3-yl)cyclopropanecarboxamide] |  |
|  |  | CNc1ncc(C2CCCOC2)c2cc(NC(=O)C3CC3)ncc12 (stereo not drawn) [Example 78, N-(8-(methylamino)-5-(tetrahydro-2H-pyran-3-yl)-2,7-naphthyridin-3-yl)cyclopropanecarboxamide] | IC50 [1, 5]: > 500 nM; Kd (TYK2 JH2; [6]): ≤ 100 nM |
| ≤ 500 | ≤ 100 | CCn1nnc2ccc(C#Cc3cnc(NC)c4cnc(NC(=O)C5CC5)cc34)cc21 [Example 683, N-(5-((1-ethyl-1H-benzo[d][1,2,3]triazol-6-yl)ethynyl)-8-(methylamino)-2,7-naphthyridin-3-yl)cyclopropanecarboxamide] |  |
| ≤ 500 |  | CNc1ncc(-c2nc3cc(N4CC5CCC(C4)O5)ccc3o2)c2cc(NC(=O)C3CC3)ncc12 [Example 305] | Kd (TYK2 JH2; [4]): ≤ 100 nM |
| ≤ 500 | ≤ 100 | CNc1ncc(C#Cc2ccc(C3CCN(C)C3=O)cc2)c2cc(NC(=O)C3CC3)ncc12 (stereo not drawn) [Example 896, N-(5-((4-(1-methyl-2-oxopyrrolidin-3-yl)phenyl)ethynyl)-8-(methylamino)-2,7-naphthyridin-3-yl)cyclopropanecarboxamide] |  |
|  | ≤ 100 | CNc1ncc(-c2nc3cc(NC(=O)C4CC4)ccc3o2)c2cc(NC(=O)C3CC3)ncc12 [Example 1091, N-(2-(6-(cyclopropanecarboxamido)-1-(methylamino)-2,7-naphthyridin-4-yl)benzo[d]oxazol-5-yl)cyclopropanecarboxamide] | IC50 [1, 7]: ≤ 500 nM |
| ≤ 500 | ≤ 100 | CNc1ncc(C#Cc2ccc3c(c2)CCC(CF)O3)c2cc(NC(=O)C3CC3)ncc12 (stereo not drawn) [Example 974, N-[5-[2-[2-(fluoromethyl)chroman-6-yl]ethynyl]-8-(methylamino)-2,7-naphthyridin-3-yl]cyclopropanecarboxamide] |  |
| ≤ 500 |  | CNc1ncc(-c2nc3cccc(N4CCC4CO)c3o2)c2cc(NC(=O)C3CC3)ncc12 (stereo not drawn) [Example 265, N-(5-(7-(2-(hydroxymethyl)azetidin-t-yl)benzo[d]oxazol-2-yl)-8-(methylamino)-2,7-naphthyridin-3-yl)cyclopropanecarboxamide] | Kd (TYK2 JH2; [4]): ≤ 100 nM |
|  | ≤ 100 | CNc1ncc(-c2nc3cc(N4CCO[C@H](C(F)F)C4)ccc3o2)c2cc(NC(=O)[C@H]3C[C@H]3C)ncc12 [Example 1058] | IC50 [1, 7]: ≤ 500 nM |
| > 500 | ≤ 100 | CNc1ncc(-c2ccn(CCc3ncnn3C)n2)c2cc(NC(=O)C3CC3)ncc12 [Example 836, N-(5-(1-(2-(1-methyl-1H-1,2,4-triazol-5-yl)ethyl)-1H-pyrazol-3-yl)-8-(methylamino)-2,7-naphthyridin-3-yl)cyclopropanecarboxamide] |  |
| ≤ 500 | ≤ 100 | CNc1ncc(/C=C/c2ccc(OCC(C)(C)O)cc2)c2cc(NC(=O)C3CC3)ncc12 [Example 784, (E)-N-(5-(4-(2-hydroxy-2-methylpropoxy)styryl)-8-(methylamino)-2,7-naphthyridin-3-yl)cyclopropanecarboxamide] |  |
| ≤ 500 | ≤ 100 | CNc1ncc(-c2nc3ccc(N4CCOCC4)cn3n2)c2cc(NC(=O)[C@@H]3CC3(F)F)ncc12 (single isomer, unassigned) [Example 994] |  |
|  |  | CNc1ncc(-c2cccc(OC)c2)c2cc(NC(=O)C3CC3)ncc12 [Example 12, N-(5-(3-methoxyphenyl)-8-(methylamino)-2,7-naphthyridin-3-yl)cyclopropanecarboxamide] | IC50 [1, 5]: > 500 nM; Kd (TYK2 JH2; [6]): ≤ 100 nM |
|  | ≤ 100 | CNc1ncc(-c2nc3cc(C(=O)NC4CC4)ccc3o2)c2cc(NC(=O)C3CC3)ncc12 [Example 1099, 2-(6-(cyclopropanecarboxamido)-1-(methylamino)-2,7-naphthyridin-4-yl)-N-cyclopropylbenzo[d]oxazole-5-carboxamide] | IC50 [1, 7]: ≤ 500 nM |
| ≤ 500 |  | CNc1ncc(-c2nc3cc(N4CCOCC4)ccc3o2)c2cc(Nc3cc(C)nc(C)n3)ncc12 [Example 449, N^6-(2,6-dimethylpyrimidin-4-yl)-N^1-methyl-4-(5-morpholinobenzo[d]oxazol-2-yl)-2,7-naphthyridine-1,6-diamine] | Kd (TYK2 JH2; [4]): ≤ 100 nM |
|  | ≤ 100 | [2H]C([2H])(C)Nc1ncc(-c2nc3ccc(N4CCOCC4)cn3n2)c2cc(NC(=O)C3CC3)ncc12 [Example 1096, N-(8-((ethyl-1,1-d2)amino)-5-(6-morpholino-[1,2,4]triazolo[1,5-a]pyridin-2-yl)-2,7-naphthyridin-3-yl)cyclopropanecarboxamide] | IC50 [1, 7]: ≤ 500 nM |
| ≤ 500 |  | CNc1ncc(-c2nc3cc(N4CCOC(C(C)(F)F)C4)ccc3o2)c2cc(NC(=O)C3CC3)ncc12 (stereo not drawn) [Example 330, N-(5-(5-(2-(1,1-difluoroethyl)morpholino)benzo[d]oxazol-2-yl)-8-(methylamino)-2,7-naphthyridin-3-yl)cyclopropanecarboxamide] | Kd (TYK2 JH2; [4]): ≤ 100 nM |
|  |  | CNc1ncc(-c2nc3c(OC)cccc3o2)c2cc(NC(=O)C3CC3)ncc12 [Example 180, N-(5-(4-methoxybenzo[d]oxazol-2-yl)-8-(methylamino)-2,7-naphthyridin-3-yl)cyclopropanecarboxamide] | IC50 [1, 5]: ≤ 500 nM; Kd (TYK2 JH2; [6]): ≤ 100 nM |
|  | ≤ 100 | CNc1ncc(C#Cc2ccc3c(c2)OC(C)CO3)c2cc(NC(=O)C3CC3)ncc12 (stereo not drawn) [Example 1005, N-(5-((3-methyl-2,3-dihydrobenzo[b][1,4]dioxin-6-yl)ethynyl)-8-(methylamino)-2,7-naphthyridin-3-yl)cyclopropanecarboxamide] | IC50 [1, 7]: ≤ 500 nM |
| ≤ 500 | ≤ 100 | CNc1ncc(C#Cc2ccccc2C(C)(C)O)c2cc(NC(=O)C3CC3)ncc12 [Example 652, N-(5-((2-(2-hydroxypropan-2-yl)phenyl)ethynyl)-8-(methylamino)-2,7-naphthyridin-3-yl)cyclopropanecarboxamide] |  |

| Compound | IC50 [1, 2] [nM] | Kd (TYK2 JH2; [3]) [nM] | other results |
| --- | --- | --- | --- |
| CNc1ncc(-c2nc3cc(O[C@H]4C[C@@H](C#N)C4)ccc3o2)c2cc(NC(=O)C3CC3)ncc12 [Example 232, N-(5-(5-((1s,3s)-3-cyanocyclobutoxy)benzo[d]oxazol-2-yl)-8-(methylamino)-2,7-naphthyridin-3-yl)cyclopropanecarboxamide] | ≤ 500 |  | Kd (TYK2 JH2; [4]): ≤ 100 nM |

From patent US20240025906A1 (NEURON23, INC., priority 2022, published 2024)
